Measured values as given in patent publication US9856279B2 (AGIOS PHARMACEUTICALS, INC, priority 2011, dated 2018).

The molecules below were run against IDH1 R132H (Homo sapiens, UniProt O75874, R132H) (assay: Assay for IDH1 R132H inhibitors (NADPH/aKG, resazurin detection)). Conditions: enzyme assay of Example 12; read-out: IDH1R132H IC50.
Format: biochemical
Procedure, shortened: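 Read-out is resorufin fluorescence (Ex544/Em590) 5 min after adding a 30 μM resazurin detection mix. Before that, mutant enzyme (0.2 μg/ml in its mix) ran 50 min at room temperature with compound, 8 uM NADPH and 2 mM aKG (mix levels) in Tris pH 7.5 with NaCl, MgCl2, BSA.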

Sequence of IDH1 R132H (O75874 whole entry R132H): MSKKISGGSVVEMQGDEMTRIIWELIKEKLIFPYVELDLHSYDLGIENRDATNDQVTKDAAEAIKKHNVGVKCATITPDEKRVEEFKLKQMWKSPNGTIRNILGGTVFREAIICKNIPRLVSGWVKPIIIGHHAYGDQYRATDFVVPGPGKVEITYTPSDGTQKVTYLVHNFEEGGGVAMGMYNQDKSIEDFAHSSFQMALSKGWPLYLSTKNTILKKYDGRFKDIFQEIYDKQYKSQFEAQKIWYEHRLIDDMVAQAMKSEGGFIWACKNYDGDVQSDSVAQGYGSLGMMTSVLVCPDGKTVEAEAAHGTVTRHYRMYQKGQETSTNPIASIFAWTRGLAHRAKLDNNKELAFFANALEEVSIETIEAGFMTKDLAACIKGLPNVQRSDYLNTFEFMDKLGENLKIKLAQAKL

| SMILES | IC50 [µM] |
| --- | --- |
| CCc1ccccc1-c1c(C2CC2)nc(N2CCN(C(=O)CCOC)[C@H](C)C2)c(C#N)c1C [Compound 359, (R)-6-cyclopropyl-5-(2-ethyl-phenyl)-2-[4-(3-methoxy-propionyl)-3-methyl-piperazin-1-yl]-4-methyl-nicotinonitrile] | < 0.5 |
| COCCC(=O)N1CCN(c2nc(C3CC3)c(-c3cccc(N(C)C)c3)c(C)c2C#N)C[C@H]1C [Compound 362, (R)-6-cyclopropyl-5-(3-dimethylamino-phenyl)-2-[4-(3-methoxy-propionyl)-3-methyl-piperazin-1-yl]-4-methyl-nicotinonitrile] | < 0.5 |
| COCCC(=O)N1CCN(c2nc(C3CC3)c(N3CCN(C(C)=O)CC3)cc2C#N)C[C@H]1C [Compound 368, (R)-5-(4-acetylpiperazin-1-yl)-6-cyclopropyl-2-(4-(3-methoxypropanoyl)-3-methylpiperazin-1-yl)nicotinonitrile] | 0.5 to 1 |
| COCCC(=O)N1CCN(c2nc(C3CC3)c(-c3cccnc3F)c(C)c2C#N)C[C@H]1C [Compound 369, (R)-2-cyclopropyl-2′-fluoro-6-[4-(3-methoxy-propionyl)-3-methyl-piperazin-1-yl]-4-methyl-[3,3′]bipyridinyl-5-carbonitrile] | 0.5 to 1 |
| COCCC(=O)N1CCN(c2nc(C3CC3)c(-c3ccc4nnnn4c3)cc2C#N)C[C@H]1C [Compound 370, (R)-6-cyclopropyl-2-[4-(3-methoxy-propionyl)-3-methyl-piperazin-1-yl]-5-tetrazolo[1,5-a]pyridin-6-yl-nicotinonitrile] | 0.5 to 1 |
| COCCC(=O)N1CCN(c2nc(C3CC3)c(-c3ccnn3C)cc2C#N)C[C@H]1C [Compound 371, (R)-6-cyclopropyl-2-[4-(3-methoxy-propionyl)-3-methyl-piperazin-1-yl]-5-(2-methyl-2H-pyrazol-3-yl)-nicotinonitrile] | 0.5 to 1 |
| COCCC(=O)N1CCN(c2nc(C3CC3)c(-c3ccccc3CO)c(C)c2C#N)C[C@H]1C [Compound 372, (R)-6-cyclopropyl-5-(2-hydroxymethyl-phenyl)-2-[4-(3-methoxy-propionyl)-3-methyl-piperazin-1-yl]-4-methyl-nicotinonitrile] | < 0.5 |
| COCCC(=O)N1CCN(c2nc(C3CC3)c(N3CCOCC3)cc2C#N)C[C@H]1C [Compound 375, (R)-6-cyclopropyl-2-(4-(3-methoxypropanoyl)-3-methylpiperazin-1-yl)-5-morpholinonicotinonitrile] | 0.5 to 1 |
| COCCC(=O)N1CCN(c2nc(C3CC3)c(N3CCN(CC4CC4)CC3)cc2C#N)C[C@H]1C [Compound 378, (R)-6-cyclopropyl-5-(4-(cyclopropylmethyl)piperazin-1-yl)-2-(4-(3-methoxypropanoyl)-3-methylpiperazin-1-yl)nicotinonitrile] | < 0.5 |
| COCCC(=O)N1CCN(c2nc(C3CC3)c(N3CCN(C(=O)c4ccccc4)CC3)cc2C#N)C[C@H]1C [Compound 379, (R)-5-(4-benzoylpiperazin-1-yl)-6-cyclopropyl-2-(4-(3-methoxypropanoyl)-3-methylpiperazin-1-yl)nicotinonitrile] | 0.5 to 1 |
| COCCC(=O)N1CCN(c2nc(C3CC3)c(-c3ccc4cn[nH]c4c3)cc2C#N)C[C@H]1C [Compound 385, (R)-6-cyclopropyl-5-(1H-indazol-6-yl)-2-(4-(3-methoxypropanoyl)-3-methylpiperazin-1-yl)nicotinonitrile] | 0.5 to 1 |
| COCCC(=O)N1CCN(c2nc(C3CC3)c(-c3ccc(F)cc3)cc2-c2nnco2)C[C@H]1C [Compound 392, (R)-1-(4-(6-cyclopropyl-5-(4-fluorophenyl)-3-(1,3,4-oxadiazol-2-yl)pyridin-2-yl)-2-methylpiperazin-1-yl)-3-methoxypropan-1-one] | < 0.5 |
| COCCC(=O)N1CCN(c2nc(C3CC3)c(-c3cc4ccccc4[nH]3)cc2C#N)C[C@H]1C [Compound 394, (R)-6-cyclopropyl-5-(1H-indol-2-yl)-2-[4-(3-methoxy-propionyl)-3-methyl-piperazin-1-yl]-nicotinonitrile] | 0.5 to 1 |
| COCCC(=O)N1CCN(c2nc(C3CC3)c(-c3csc(NC(=O)OC(C)(C)C)n3)cc2C#N)C[C@H]1C [Compound 395, (R)-(4-{5-cyano-2-cyclopropyl-6-[4-(3-methoxy-propionyl)-3-methyl-piperazin-1-yl]-pyridin-3-yl}-thiazol-2-yl)-carbamic acid tert-butyl ester] | 0.5 to 1 |
| COCCC(=O)N1CCN(c2nc(C3CC3)c(-c3ccc(N4CCNCC4)nc3)cc2C#N)C[C@H]1C [Compound 396, (R)-2-cyclopropyl-6-[4-(3-methoxy-propionyl)-3-methyl-piperazin-1-yl]-6′-piperazin-1-yl-[3,3′]bipyridinyl-5-carbonitrile] | < 0.5 |
| N#Cc1cc(-c2cccc3cnccc23)c(C2CC2)nc1N1CCN(C(=O)C2CC2)C(C(F)(F)F)C1 (centres unmarked) [Compound 397, 2-(4-(cyclopropanecarbonyl)-3-(trifluoromethyl)piperazin-1-yl)-6-cyclopropyl-5-(isoquinolin-5-yl)nicotinonitrile] | < 0.5 |

| SMILES | IC50 [µM] |
| --- | --- |
| N#Cc1cc(-c2cccc3cnccc23)c(C2CC2)nc1N1CCN(C(=O)CC(F)(F)F)C(C(F)(F)F)C1 (centres unmarked) [Compound 399, 6-cyclopropyl-5-(isoquinolin-5-yl)-2-(3-(trifluoromethyl)-4-(3,3,3-trifluoropropanoyl)piperazin-1-yl)nicotinonitrile] | 0.5 to 1 |
| C[C@@H]1CN(c2nc(C3CC3)c(-c3cccc4cnccc34)cc2C#N)CCN1C(=O)CCO [Compound 402, (R)-6-cyclopropyl-2-(4-(3-hydroxypropanoyl)-3-methylpiperazin-1-yl)-5-(isoquinolin-5-yl)nicotinonitrile] | < 0.5 |
| COCCC(=O)N1CCN(c2nc(C3CC3)c(-c3cccc(NS(=O)(=O)CCl)c3)cc2C#N)C[C@H]1C [Compound 404, (R)-1-chloro-N-(3-(5-cyano-2-cyclopropyl-6-(4-(3-methoxypropanoyl)-3-methylpiperazin-1-yl)pyridin-3-yl)phenyl)methanesulfonamide] | 0.5 to 1 |
| COCCC(=O)N1CCN(c2nc(C3CC3)c(-c3cccc(F)c3F)c(C)c2C#N)C[C@H]1C [Compound 405, (R)-6-cyclopropyl-5-(2,3-difluoro-phenyl)-2-[4-(3-methoxy-propionyl)-3-methyl-piperazin-1-yl]-4-methyl-nicotinonitrile] | < 0.5 |
| COCCC(=O)N1CCN(c2nc(C3CC3)c(-c3cccc(N(C)C)c3)cc2C#N)C[C@H]1C [Compound 413, (R)-6-cyclopropyl-5-(3-(dimethylamino)phenyl)-2-(4-(3-methoxypropanoyl)-3-methylpiperazin-1-yl)nicotinonitrile] | 0.5 to 1 |
| CNc1cccc(-c2cc(C#N)c(N3CCN(C(=O)CCOC)[C@H](C)C3)nc2C2CC2)c1 [Compound 414, (R)-6-cyclopropyl-2-(4-(3-methoxypropanoyl)-3-methylpiperazin-1-yl)-5-(3-(methylamino)phenyl)nicotinonitrile] | 0.5 to 1 |
| N#Cc1cc(-c2cccc3cnccc23)c(C2CC2)nc1N1CCN(C(=O)C2CC2)C(C(F)F)C1 (centres unmarked) [Compound 422, 2-(4-(cyclopropanecarbonyl)-3-(difluoromethyl)piperazin-1-yl)-6-cyclopropyl-5-(isoquinolin-5-yl)nicotinonitrile] | 0.5 to 1 |
| N#Cc1cc(-c2cccc3cnccc23)c(C2CC2)nc1N1CCN(C(=O)C2CC2)C(CC(F)(F)F)C1 (centres unmarked) [Compound 423, 2-(4-(cyclopropanecarbonyl)-3-(2,2,2-trifluoroethyl)piperazin-1-yl)-6-cyclopropyl-5-(isoquinolin-5-yl)nicotinonitrile] | 0.5 to 1 |
| COCCC(=O)N1CCN(c2nc(C3CC3)c(-c3cccc4c(O)ncnc34)cc2C#N)C[C@H]1C [Compound 430] | 1 to 10 |
| CCOC(=O)[C@@H]1C[C@H]1C(=O)N1CCN(c2nc(C3CC3)c(-c3cccc4cnccc34)cc2C#N)C[C@H]1C [Compound 435, (1R,2R)-ethyl 2-((R)-4-(3-cyano-6-cyclopropyl-5-(isoquinolin-5-yl)pyridin-2-yl)-2-methylpiperazine-1-carbonyl)cyclopropanecarboxylate] | 0.5 to 1 |
| COCCC(=O)N1CCN(c2nc(C3CC3)c(-c3cccc4nonc34)cc2C#N)C[C@H]1C [Compound 437, (R)-5-benzo[1,2,5]oxadiazol-4-yl-6-cyclopropyl-2-[4-(3-methoxy-propionyl)-3-methyl-piperazin-1-yl]-nicotinonitrile] | 0.5 to 1 |
| C=CS(=O)(=O)N(c1cccc(-c2cc(C#N)c(N3CCN(C(=O)CCOC)[C@H](C)C3)nc2C2CC2)c1)S(=O)(=O)C=C [Compound 440, (R)—N-(3-(5-cyano-2-cyclopropyl-6-(4-(3-methoxypropanoyl)-3-methylpiperazin-1-yl)pyridin-3-yl)phenyl)-N-(vinylsulfonyl)ethenesulfonamide] | < 0.5 |
| COCCC(=O)N1CCN(c2nc(C3CC3)c(-c3cccc(NC(=O)/C=C/CN(C)C)c3)cc2C#N)C[C@H]1C [Compound 441, (R,E)-N-(3-(5-cyano-2-cyclopropyl-6-(4-(3-methoxypropanoyl)-3-methylpiperazin-1-yl)pyridin-3-yl)phenyl)-4-(dimethylamino)but-2-enamide] | 0.5 to 1 |
| CCC(=O)Nc1cccc(-c2cc(C#N)c(N3CCN(C(=O)C4CC4)[C@H](C4CC4)C3)nc2C2CC2)c1 [Compound 450, (R)—N-(3-(5-cyano-6-(4-(cyclopropanecarbonyl)-3-cyclopropylpiperazin-1-yl)-2-cyclopropylpyridin-3-yl)phenyl)propionamide] | 0.5 to 1 |
| COCCC(=O)N1CCN(c2nc(C3CC3)c(-c3cccc(N(C)C(=O)C(F)F)c3)cc2C#N)C[C@H]1C [Compound 455] | 0.5 to 1 |
| COCCC(=O)N1CCN(c2nc(C3CC3)c(-c3cccc4c3CN(C)C4=O)cc2C#N)C[C@H]1C [Compound 460, (R)-6-Cyclopropyl-2-(4-(3-methoxypropanoyl)-3-methylpiperazin-1-yl)-5-(2-methyl-1-oxoisoindolin-4-yl)nicotinonitrile] | < 0.5 |
